Experimental data as given in patent US20260207535A1, “CRIBLAGE INHIBITEURS USP8” (COMMISSARIAT A L'ENERGIE ATOMIQUE ET AUX ENERGIES …, priority 2022, published 2026).

How the values were obtained:
[1] = molecular target: T1, Full length USP8 (USP8FL) (Homo sapiens, UniProt P40818); experiment: USP8FL (full length USP8) enzymatic inhibition, Ub-Rhodamine 110 hydrolysis in L-cysteine buffer; type: biochemical
T1 construct: purchased BostonBiochem E-520
T1 sequence (P40818 1-1118): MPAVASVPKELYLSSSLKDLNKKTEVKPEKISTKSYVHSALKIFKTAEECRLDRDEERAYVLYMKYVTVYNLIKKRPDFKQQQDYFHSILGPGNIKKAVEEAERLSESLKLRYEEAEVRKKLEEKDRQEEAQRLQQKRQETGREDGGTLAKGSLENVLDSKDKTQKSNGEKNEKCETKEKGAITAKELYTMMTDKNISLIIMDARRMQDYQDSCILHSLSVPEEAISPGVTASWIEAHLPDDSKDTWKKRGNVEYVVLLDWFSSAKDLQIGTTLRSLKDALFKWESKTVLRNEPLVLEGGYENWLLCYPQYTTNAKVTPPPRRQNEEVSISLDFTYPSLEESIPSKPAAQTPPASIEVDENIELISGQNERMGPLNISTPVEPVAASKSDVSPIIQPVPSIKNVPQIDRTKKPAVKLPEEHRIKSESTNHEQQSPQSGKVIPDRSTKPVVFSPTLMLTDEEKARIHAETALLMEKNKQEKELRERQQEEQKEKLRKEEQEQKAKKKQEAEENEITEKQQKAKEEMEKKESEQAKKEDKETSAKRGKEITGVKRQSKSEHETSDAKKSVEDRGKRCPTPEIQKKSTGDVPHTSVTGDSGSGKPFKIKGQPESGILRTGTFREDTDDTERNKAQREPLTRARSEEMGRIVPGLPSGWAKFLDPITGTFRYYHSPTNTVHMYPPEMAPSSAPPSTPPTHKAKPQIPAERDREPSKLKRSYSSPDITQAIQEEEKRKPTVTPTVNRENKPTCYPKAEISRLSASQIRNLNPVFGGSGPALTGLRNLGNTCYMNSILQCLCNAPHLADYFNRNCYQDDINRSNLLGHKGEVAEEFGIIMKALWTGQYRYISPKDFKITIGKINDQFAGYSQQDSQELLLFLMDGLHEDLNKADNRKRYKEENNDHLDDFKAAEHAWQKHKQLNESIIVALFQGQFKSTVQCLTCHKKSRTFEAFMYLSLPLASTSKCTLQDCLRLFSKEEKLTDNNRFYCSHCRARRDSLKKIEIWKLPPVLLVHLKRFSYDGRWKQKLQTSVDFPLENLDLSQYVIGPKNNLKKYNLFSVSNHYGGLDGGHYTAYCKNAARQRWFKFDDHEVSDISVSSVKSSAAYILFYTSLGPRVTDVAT
Experimental: USP8 FL (USP8 Full Length) was incubated at a concentration of 75 nM in the presence of Ub-Rho (UBIQUIGENT ref. 60-0117-050) at a final concentration of 0.1 μM, in conditions ensuring linearity of enzyme activity throughout the assay in a specific buffer. Compounds were added to the reaction mix at different doses just before the substrate. The enzymatic reaction kinetics were monitored by measuring fluorescence elicited by the hydrolysis of Ub-Rho over 30 min.
In this setup, an in-house purified catalytic domain of USP8 (USP8CD) was used at a concentration of 80 nM in the presence of the artificial substrate Ubiquitin-Rhodamine 110 (Ub-Rho) (ref: 60-0117-050 Ubiquigent) at a final concentration of 0.1 μM, in conditions ensuring linearity of enzyme activity throughout the assay incubation time. Enzymatic assay was performed in a Tris HCl buffer (40 mM Tris HCl pH 7.4, Ovalbumine 0.5 mg/ml, Cysteine HCl 5.5 mM). Compounds to be tested were added to the reaction mix and incubated with enzyme for 20 min, before the substrate. The enzymatic reaction kinetics were monitored by measuring fluorescence elicited by the hydrolysis of the peptidyl Ub-Rho over 30 minutes. The negative control was the solvent DMSO at 1%.
Full length USP8 (USPBFL) (BostonBiochem ref. E-520) were used at a concentration of 75 nM in the presence of a ubiquitin substrate, i.e., the Ub-Rhodamine 110 (Ub-Rho) (Ubiquigent ref. 60-0117-050) at a final concentration of 0.1 μM. Enzymatic assays were performed as described for USP8-CD except that USP-FL was used at a concentration of 75 nM. The compounds were used at a final concentration of 0.1, 1, 5, 10, 50 and 100 μM in DMSO 0.5%. The USP8 catalytic activity was monitored both before adding the substrate (TO) and after twenty minutes of incubation at room temperature (Final Time TF). The enzymatic reaction kinetics were monitored by measuring fluorescence elicited by the hydrolysis of the Ub-Rho bound over 30 minutes.

Text for AtT-20 cells: The AtT-20 cells viability was monitored in the conditions used to follow ACTH secretion. The viability of treated cells was concomitantly evaluated using a Cell Viability Reagent (monitoring of the cells' reducing capacity) (PrestoBlue® assay, Molecular Probes) with the aim to determine non-toxic doses of cell treatment.
After the collection of the supernatant sample for the ACTH assay in the previous step, cells were supplemented with the PrestoBlue™ cell viability reagent (Invitrogen™ A13261) at 10% final volume, and re-incubated at 37° C. for 30 minutes. Fluorescence was then read with a FLUOstar OPTIMA microplate reader.

Which results are given for `Cc1cc(C(C#N)c2ccc(Cl)cc2)c(Cl)cc1NC(=O)c1cc(I)cc(I)c1O` (stereo not shown) [Closantel, reference compound]?
dose-dependent viability assay, in words (FIG. 7) (AtT-20 cells): less cytotoxic than niclosamide; AtT-20 cell viability (PrestoBlue assay) % of control (DMSO) at 25 μM Mean (SD) (AtT-20 cells; mouse, 24 h, 25 μM): 104.8 (16.08) %; activity against USP8 (CD and FL) ([1]; USP8 CD and FL): active; IC50 ([1]; USP8 FL 75 nM, Ub-Rho 0.1 μM, L-cysteine buffer, read-out: USP8FL inhbition IC50 [μM] (CI: Confidence Interval)): 12 µM
